# “And” between values parts separate entries of the source, which are not always exact repeats. Equal entries are not always repeated. Inconclusive results and toxic doses are left out. *1 amine or outer side, *2 acyl side, *3 side chain or, on linkers, in order; H or OH if unused. Where a SMILES comes first, the peptide text is derived from it. Bridges are numbered along the chain shown (N, C = ends). Roman numbers before positions name the chains, in order. [ ]: non-standard residue; d: D form. Actinocin(9to1) = Cc1c2oc3c(C)ccc(C(=O)[*:1])c3nc-2c(C(=O)[*:2])c(N)c1=O; aThr = C[C@H](O)[C@H](N)C(=O)O; NMeV = CN[C@H](C(=O)O)C(C)C; Sar = CNCC(=O)O
# Test system: B6C3F1 mice, B16 melanoma ip, median survival T/C
# Test: NCI In Vivo Anticancer Drug Screen. Data for tumor model B16 Melanoma (intraperitoneal) in B6C3F1 mice
# Settings: endpoint: median survival time, higher = longer survival
# Procedure: The antitumor activity of compounds was measured in mice bearing transplantable tumors. Survival or tumor size were measured and the results are expressed as the measurement made in the treated group (T) divided by the measurement made in the vehicle treated control group (C). The tumor model used in this assay is B16 Melanoma (intraperitoneal) in B6C3F1 mice
# [1] = dose: 12.5 mg/kg/injection, schedule: Q01DX009 (ip), vehicle: saline with Tween-80
# [2] = dose: 25.0 mg/kg/injection, schedule: Q01DX009 (ip), vehicle: saline with Tween-80
# [3] = dose: 50.0 mg/kg/injection, schedule: Q01DX009 (ip), vehicle: saline with Tween-80
# [4] = dose: 12.5 mg/kg/injection, schedule: Q01DX009 (ip), vehicle: Klucel (hydroxypropylcellulose) (HPC)
# [5] = dose: 25.0 mg/kg/injection, schedule: Q01DX009 (ip), vehicle: Klucel (hydroxypropylcellulose) (HPC)
# [6] = dose: 50.0 mg/kg/injection, schedule: Q01DX009 (ip), vehicle: Klucel (hydroxypropylcellulose) (HPC)
# [7] = dose: 12.5 mg/kg/injection, schedule: Q01DX009 (ip), vehicle: saline
# [8] = dose: 100.0 mg/kg/injection, schedule: Q01DX009 (ip), vehicle: saline with Tween-80
# [9] = dose: 200.0 mg/kg/injection, schedule: Q01DX009 (ip), vehicle: saline with Tween-80
# [10] = dose: 50.0 mg/kg/injection, schedule: Q01DX009 (ip), vehicle: suspension in saline
# [11] = dose: 100.0 mg/kg/injection, schedule: Q01DX009 (ip), vehicle: suspension in saline
# [12] = dose: 200.0 mg/kg/injection, schedule: Q01DX009 (ip), vehicle: suspension in saline
# [13] = dose: 1.25 mg/kg/injection, schedule: Q01DX009 (ip), vehicle: saline
# [14] = dose: 2.5 mg/kg/injection, schedule: Q01DX009 (ip), vehicle: saline
compound,measurement,setting,value
"Cc1c2oc3c(C)ccc(C(=O)N[C@@H]4C(=O)N[C@H](C(C)C)C(=O)N5CCC[C@H]5C(=O)N(C)CC(=O)N(C)[C@@H](C(C)C)C(=O)O[C@H]4C)c3nc-2c(C(=O)N[C@@H]2C(=O)N[C@H](C(C)C)C(=O)N3CCC[C@H]3C(=O)N(C)CC(=O)N(C)[C@@H](C(C)C)C(=O)O[C@H]2C)c(N)c1=O (I: [aThr][dV]P[Sar][NMeV] / II: [aThr][dV]P[Sar][NMeV]; ester I:1-I:C, II:1-II:C; linker I:N-II:N via Actinocin(9to1))",T/C,"dose: 6.25 micrograms/kg/injection, schedule: Q01DX009 (ip), vehicle: saline + alcohol",118 % of control
same,T/C,"dose: 6.25 micrograms/kg/injection, schedule: Q01DX009 (ip), vehicle: water",117 % of control
same,T/C,"dose: 6.3 micrograms/kg/injection, schedule: Q01DX009 (ip), vehicle: saline + alcohol",108 % of control and 110 % of control
same,T/C,"dose: 12.5 micrograms/kg/injection, schedule: Q01DX009 (ip), vehicle: saline + alcohol",115 % of control
same,T/C,"dose: 25.0 micrograms/kg/injection, schedule: Q01DX009 (ip), vehicle: water",151 % of control
same,T/C,"dose: 50.0 micrograms/kg/injection, schedule: Q01DX009 (ip), vehicle: saline + alcohol",172 % of control
same,T/C,"dose: 50.0 micrograms/kg/injection, schedule: Q01DX009 (ip), vehicle: water",171 % of control
same,T/C,"dose: 100.0 micrograms/kg/injection, schedule: Q01DX009 (ip), vehicle: saline + alcohol",160 % of control and 166 % of control
same,T/C,"dose: 100.0 micrograms/kg/injection, schedule: Q01DX009 (ip), vehicle: water",181 % of control
same,T/C,"dose: 200.0 micrograms/kg/injection, schedule: Q01DX009 (ip), vehicle: saline + alcohol",159 % of control and 174 % of control
[Cl][Pt+2][Cl].[NH-]c1ccc(Cl)cc1[NH-],T/C,"dose: 2.5 mg/kg/injection, schedule: Q01DX009 (ip), vehicle: saline with Tween-80",116 % of control
same,T/C,"dose: 20.0 mg/kg/injection, schedule: Q01DX009 (ip), vehicle: saline with Tween-80",168 % of control
CCOC1=Cc2c(oc3c(C(C)(C)C)cc(OCC)cc23)OC(C(C)(C)C)=C1,T/C,"dose: 1.56 mg/kg/injection, schedule: Q01DX009 (ip), vehicle: saline with Tween-80",97 % of control and 107 % of control
same,T/C,"dose: 3.12 mg/kg/injection, schedule: Q01DX009 (ip), vehicle: saline with Tween-80",97 % of control and 104 % of control
same,T/C,"dose: 6.25 mg/kg/injection, schedule: Q01DX009 (ip), vehicle: saline with Tween-80",102 % of control
same,T/C,[1],97 % of control and 106 % of control
same,T/C,[2],113 % of control and 91 % of control
same,T/C,[3],89 % of control and 101 % of control
C[C@]12CC[C@@H]3c4ccc(O)cc4CC[C@H]3[C@@H]1CC[C@@H]2O,T/C,"dose: 6.25 mg/kg/injection, schedule: Q01DX009 (ip), vehicle: Klucel (hydroxypropylcellulose) (HPC)",89 % of control
same,T/C,[4],98 % of control
same,T/C,[5],90 % of control
same,T/C,[6],94 % of control
same,T/C,"dose: 100.0 mg/kg/injection, schedule: Q01DX009 (ip), vehicle: Klucel (hydroxypropylcellulose) (HPC)",90 % of control
same,T/C,"dose: 200.0 mg/kg/injection, schedule: Q01DX009 (ip), vehicle: Klucel (hydroxypropylcellulose) (HPC)",89 % of control
O=[n+]1c2c(n([O-])c3ccccc31)-c1cccc3cccc-2c13,T/C,"dose: 3.12 mg/kg/injection, schedule: Q01DX009 (ip), vehicle: saline",99 % of control
same,T/C,"dose: 6.25 mg/kg/injection, schedule: Q01DX009 (ip), vehicle: saline",91 % of control
same,T/C,[7],94 % of control
C#CCNC1=C(C)C(=O)C2=C(C1=O)[C@H](COC(N)=O)[C@]1(OC)[C@@H]3N[C@@H]3CN21,T/C,"dose: 0.75 mg/kg/injection, schedule: Q01DX009 (ip), vehicle: distilled water + Tween-80",91 % of control
same,T/C,"dose: 1.5 mg/kg/injection, schedule: Q01DX009 (ip), vehicle: distilled water + Tween-80",98 % of control
same,T/C,"dose: 6.25 mg/kg/injection, schedule: Q01DX009 (ip), vehicle: distilled water + Tween-80",241 % of control
same,T/C,"dose: 12.0 mg/kg/injection, schedule: Q01DX009 (ip), vehicle: distilled water + Tween-80",98 % of control
CCCC(NC(=O)OCc1ccccc1)C(=O)O (stereo not given),T/C,[8],92 % of control
same,T/C,[9],90 % of control
CNC(=S)N/N=C(/C)CCc1c(C)nn(C(=S)NC)c1C,T/C,[4],103 % of control
same,T/C,[5],106 % of control
same,T/C,[6],102 % of control
C1CNCCN1,T/C,"dose: 25.0 mg/kg/injection, schedule: Q01DX009 (ip), vehicle: suspension in saline",103 % of control
same,T/C,[10],111 % of control
same,T/C,[11],109 % of control
same,T/C,[12],111 % of control
O=C(CNC(=O)OCc1ccccc1)NCC(=O)NC(Cc1c[nH]c2ccccc12)C(=O)O (stereo not given),T/C,[10],97 % of control
same,T/C,[11],109 % of control and 117 % of control and 88 % of control
same,T/C,[12],91 % of control and 99 % of control
same,T/C,"dose: 400.0 mg/kg/injection, schedule: Q01DX009 (ip), vehicle: suspension in saline",88 % of control and 92 % of control and 107 % of control
OCC1OC(n2cnc3c2NC=NC[C@H]3O)CC1O (stereo not given in full),T/C,"dose: 0.13 mg/kg/injection, schedule: Q01DX009 (ip), vehicle: saline",84 % of control
same,T/C,"dose: 0.25 mg/kg/injection, schedule: Q01DX009 (ip), vehicle: saline",78 % of control
same,T/C,"dose: 0.5 mg/kg/injection, schedule: Q01DX009 (ip), vehicle: saline",96 % of control
C[C@@H]1C[C@@H]([C@H](O)CC2CC(=O)NC(=O)C2)C(=O)[C@@H](C)C1,T/C,[7],105 % of control
same,T/C,"dose: 25.0 mg/kg/injection, schedule: Q01DX009 (ip), vehicle: saline",111 % of control
same,T/C,"dose: 50.0 mg/kg/injection, schedule: Q01DX009 (ip), vehicle: saline",106 % of control
COc1ccc2c(c1OC(C)=O)-c1cc(OC(C)=O)cc3c1C(C2)N(C(=O)CN(CCCl)CCCl)CC3 (stereo not given),T/C,"dose: 1.56 mg/kg/injection, schedule: Q04DX003 (ip), vehicle: DMSO",120 % of control
same,T/C,"dose: 3.13 mg/kg/injection, schedule: Q04DX003 (ip), vehicle: DMSO",120 % of control
same,T/C,"dose: 6.25 mg/kg/injection, schedule: Q04DX003 (ip), vehicle: DMSO",159 % of control
same,T/C,"dose: 12.5 mg/kg/injection, schedule: Q04DX003 (ip), vehicle: DMSO",150 % of control
same,T/C,"dose: 25.0 mg/kg/injection, schedule: Q04DX003 (ip), vehicle: DMSO",150 % of control
same,T/C,"dose: 50.0 mg/kg/injection, schedule: Q04DX003 (ip), vehicle: DMSO",170 % of control
CC(C)(C)OC(=O)NC(Cc1cn(Cc2ccccc2)cn1)C(=O)O (stereo not given),T/C,[3],102 % of control
same,T/C,[8],97 % of control
same,T/C,[9],100 % of control
Nc1ncnc2c1cnn2Cc1ccc(Cl)cc1,T/C,[3],107 % of control
same,T/C,[8],100 % of control
COc1cccc(C2NC(=O)c3c(n[nH]c3N)S2)c1O (stereo not given),T/C,[1],101 % of control
same,T/C,[2],106 % of control
same,T/C,[3],104 % of control
same,T/C,[8],107 % of control
same,T/C,[9],95 % of control
Cc1c2cc[n+](C)cc2c(C)c2c1[nH]c1ccc(O)cc12,T/C,"dose: 0.12 mg/kg/injection, schedule: Q01DX009 (ip), vehicle: water",107 % of control
same,T/C,"dose: 0.13 mg/kg/injection, schedule: Q01DX009 (ip), vehicle: water",117 % of control
same,T/C,[13],123 % of control
same,T/C,[14],116 % of control
C/C(=N\NC(=O)c1ccncc1)c1ccc(Cl)cc1,T/C,[13],96 % of control
same,T/C,[14],98 % of control
same,T/C,"dose: 5.0 mg/kg/injection, schedule: Q01DX009 (ip), vehicle: saline",107 % of control
Cn1nnc2c1C(=O)c1ccccc1C2=O,T/C,[3],88 % of control
same,T/C,[8],90 % of control
same,T/C,[9],89 % of control
NC(=O)c1ccc[n+](Cc2c(Cl)cccc2Cl)c1,T/C,"dose: 1.5 mg/kg/injection, schedule: Q01DX009 (ip), vehicle: saline",98 % of control
same,T/C,"dose: 3.0 mg/kg/injection, schedule: Q01DX009 (ip), vehicle: saline",98 % of control
same,T/C,"dose: 6.0 mg/kg/injection, schedule: Q01DX009 (ip), vehicle: saline",103 % of control
same,T/C,"dose: 12.0 mg/kg/injection, schedule: Q01DX009 (ip), vehicle: saline",98 % of control
